Data taken from PubChem BioAssay AID256 (DTP/NCI, 2004).
Values joined by “and” are separate entries in the source; they are usually repeats but may differ in a detail not shown here. Identical values can stand only once. Inconclusive results and toxic doses are left out. How the source made its calls: active means survival T/C of 150% or more; inactive means T/C below 125% in these data.

System: CD2F1 mice, L1210 leukemia ip, survival T/C
Test: NCI In Vivo Anticancer Drug Screen. Data for tumor model L1210 Leukemia (intraperitoneal) in CD2F1 (CDF1) mice
Settings: higher = longer survival
In short: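 In this screen, transplantable tumors were grown in mice given either the compound or its vehicle. Results were expressed as the treated measurement relative to the control measurement.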

[1] = endpoint: mean survival time, dose: 50.0 mg/kg/injection, schedule: Q01DX009 (ip), vehicle: saline
[2] = endpoint: mean survival time, dose: 100.0 mg/kg/injection, schedule: Q01DX009 (ip), vehicle: saline
[3] = endpoint: mean survival time, dose: 100.0 mg/kg/injection, schedule: Q04DX003 (ip), vehicle: saline
[4] = endpoint: mean survival time, dose: 50.0 mg/kg/injection, schedule: Q01DX009 (ip), vehicle: Klucel (hydroxypropylcellulose) (HPC)
[5] = endpoint: mean survival time, dose: 100.0 mg/kg/injection, schedule: Q01DX009 (ip), vehicle: Klucel (hydroxypropylcellulose) (HPC)
[6] = endpoint: mean survival time, dose: 100.0 mg/kg/injection, schedule: Q04DX003 (ip), vehicle: saline with Tween-80
[7] = endpoint: mean survival time, dose: 200.0 mg/kg/injection, schedule: Q04DX003 (ip), vehicle: saline with Tween-80
[8] = endpoint: mean survival time, dose: 100.0 mg/kg/injection, schedule: Q01DX009 (ip), vehicle: saline with Tween-80
[9] = endpoint: mean survival time, dose: 200.0 mg/kg/injection, schedule: Q01DX009 (ip), vehicle: saline with Tween-80
[10] = endpoint: mean survival time, dose: 400.0 mg/kg/injection, schedule: Q01DX009 (ip), vehicle: saline with Tween-80
[11] = endpoint: mean survival time, dose: 50.0 mg/kg/injection, schedule: Q01DX009 (ip), vehicle: saline with Tween-80

Measured: T/C

CCC1(CC)NC(=O)N(CCOS(C)(=O)=O)C1=O
inactive: endpoint: mean survival time, dose: 50.0 mg/kg/injection, schedule: Q01DX001 (ip), vehicle: Klucel (hydroxypropylcellulose) (HPC) 110 % of control | endpoint: mean survival time, dose: 100.0 mg/kg/injection, schedule: Q01DX001 (ip), vehicle: Klucel (hydroxypropylcellulose) (HPC) 93 % of control | endpoint: mean survival time, dose: 200.0 mg/kg/injection, schedule: Q01DX001 (ip), vehicle: Klucel (hydroxypropylcellulose) (HPC) 93 % of control

CN1CCCN(C)C1c1ccccc1
inactive: endpoint: mean survival time, dose: 25.0 mg/kg/injection, schedule: Q01DX009 (ip), vehicle: saline 97 % of control | [1] 94 % of control | [2] 89 % of control | [3] 104 % of control

COC1C(CO)OC(n2cnc3c(=S)nc(N)[nH]c32)C1O (stereo not given)
inactive: endpoint: mean survival time, dose: 12.5 mg/kg/injection, schedule: Q01DX009 (ip), vehicle: Klucel (hydroxypropylcellulose) (HPC) 98 % of control and 101 % of control | endpoint: mean survival time, dose: 25.0 mg/kg/injection, schedule: Q01DX009 (ip), vehicle: Klucel (hydroxypropylcellulose) (HPC) 101 % of control and 106 % of control | [4] 101 % of control and 106 % of control | [5] 123 % of control | endpoint: mean survival time, dose: 400.0 mg/kg/injection, schedule: Q01DX009 (ip), vehicle: Klucel (hydroxypropylcellulose) (HPC) 100 % of control

CN1CCC(c2ccccc2)(c2ccccc2)OC1c1ccccc1 (stereo not given)
inactive: [6] 101 % of control | [7] 100 % of control | endpoint: mean survival time, dose: 400.0 mg/kg/injection, schedule: Q04DX003 (ip), vehicle: saline with Tween-80 94 % of control

Cc1ccc(S(=O)(=O)/C=C(/SC#N)C2CCCCC2)cc1
inactive: [8] 96 % of control | [9] 100 % of control | [10] 102 % of control

C[n+]1cnc2c(ccn2C2OC(CO)C(O)C2O)c1N (stereo not given)
inactive: endpoint: mean survival time, dose: 50.0 mg/kg/injection, schedule: Q01DX001 (ip), vehicle: saline 102 % of control | endpoint: mean survival time, dose: 100.0 mg/kg/injection, schedule: Q01DX001 (ip), vehicle: saline 100 % of control | endpoint: mean survival time, dose: 200.0 mg/kg/injection, schedule: Q01DX001 (ip), vehicle: saline 102 % of control | endpoint: mean survival time, dose: 400.0 mg/kg/injection, schedule: Q01DX001 (ip), vehicle: saline 100 % of control

CCc1cccc(OCC(C)=O)c1
inactive: endpoint: mean survival time, dose: 75.0 mg/kg/injection, schedule: Q01DX001 (ip), vehicle: saline with Tween-80 97 % of control | endpoint: mean survival time, dose: 150.0 mg/kg/injection, schedule: Q01DX001 (ip), vehicle: saline with Tween-80 101 % of control | endpoint: mean survival time, dose: 300.0 mg/kg/injection, schedule: Q01DX001 (ip), vehicle: saline with Tween-80 100 % of control

COC(=O)CCCNC(C)C
inactive: endpoint: mean survival time, dose: 12.5 mg/kg/injection, schedule: Q01DX009 (ip), vehicle: water 101 % of control | endpoint: mean survival time, dose: 25.0 mg/kg/injection, schedule: Q01DX009 (ip), vehicle: water 95 % of control | endpoint: mean survival time, dose: 50.0 mg/kg/injection, schedule: Q01DX009 (ip), vehicle: water 102 % of control | endpoint: mean survival time, dose: 100.0 mg/kg/injection, schedule: Q01DX009 (ip), vehicle: water 95 % of control | endpoint: mean survival time, dose: 200.0 mg/kg/injection, schedule: Q01DX009 (ip), vehicle: water 102 % of control

CCCCC(CC)CO.[Ti] (stereo not given)
inactive: [11] 103 % of control | [8] 106 % of control | [9] 97 % of control

NNC(=S)N/N=C/c1ccccn1
inactive: endpoint: mean survival time, dose: 1.56 mg/kg/injection, schedule: Q01DX009 (ip), vehicle: saline 93 % of control and 98 % of control | endpoint: mean survival time, dose: 3.12 mg/kg/injection, schedule: Q01DX009 (ip), vehicle: saline 98 % of control and 100 % of control | endpoint: mean survival time, dose: 6.25 mg/kg/injection, schedule: Q01DX009 (ip), vehicle: saline with Tween-80 105 % of control | endpoint: mean survival time, dose: 6.25 mg/kg/injection, schedule: Q01DX009 (ip), vehicle: saline 115 % of control | endpoint: mean survival time, dose: 6.25 mg/kg/injection, schedule: Q04DX003 (ip), vehicle: saline with Tween-80 118 % of control | endpoint: mean survival time, dose: 6.3 mg/kg/injection, schedule: Q01DX009 (oral), vehicle: saline 92 % of control | endpoint: mean survival time, dose: 12.5 mg/kg/injection, schedule: Q01DX009 (oral), vehicle: saline 98 % of control | endpoint: mean survival time, dose: 12.5 mg/kg/injection, schedule: Q04DX003 (ip), vehicle: saline with Tween-80 98 % of control | endpoint: mean survival time, dose: 25.0 mg/kg/injection, schedule: Q04DX003 (ip), vehicle: saline with Tween-80 102 % of control

C=C(C)Cc1cc(C(CC)C(CC)c2ccc(O)c(CC(=C)C)c2)ccc1O (stereo not given)
inactive: [8] 100 % of control | [3] 96 % of control | [9] 98 % of control | endpoint: mean survival time, dose: 200.0 mg/kg/injection, schedule: Q04DX003 (ip), vehicle: saline 93 % of control | [10] 100 % of control | endpoint: mean survival time, dose: 400.0 mg/kg/injection, schedule: Q04DX003 (ip), vehicle: saline 89 % of control

OC(CBr)C(O)CBr (stereo not given)
inactive: [11] 108 % of control | [1] 108 % of control | endpoint: mean survival time, dose: 100.0 mg/kg/injection, schedule: Q01DX001 (ip), vehicle: saline with Tween-80 102 % of control | [8] 106 % of control | [2] 108 % of control | [6] 102 % of control | endpoint: mean survival time, dose: 200.0 mg/kg/injection, schedule: Q01DX001 (ip), vehicle: saline with Tween-80 109 % of control | [7] 86 % of control

CC(C)(C)[Si](OC(=O)N(CCCl)N=O)(c1ccccc1)c1ccccc1
inactive: endpoint: mean survival time, dose: 6.25 mg/kg/injection, schedule: Q01DX001 (ip), vehicle: distilled water + Tween-80 98 % of control | endpoint: mean survival time, dose: 12.5 mg/kg/injection, schedule: Q01DX001 (ip), vehicle: distilled water + Tween-80 88 % of control | endpoint: mean survival time, dose: 25.0 mg/kg/injection, schedule: Q01DX001 (ip), vehicle: distilled water + Tween-80 93 % of control | endpoint: mean survival time, dose: 50.0 mg/kg/injection, schedule: Q01DX001 (ip), vehicle: distilled water + Tween-80 88 % of control | endpoint: mean survival time, dose: 100.0 mg/kg/injection, schedule: Q01DX001 (ip), vehicle: distilled water + Tween-80 90 % of control

CCCCCCN(CCCCCC)CC(O)c1cccc2c1cc(Cl)c1ccccc12 (stereo not given)
inactive: [11] 96 % of control | [8] 100 % of control | [6] 95 % of control | [9] 98 % of control | [7] 101 % of control

CCOP(=O)(OCC)OCC1OC(n2cnc3c(N)ncnc32)C(O)C1O (stereo not given)
inactive: endpoint: median survival time, dose: 12.5 mg/kg/injection, schedule: Q01DX005 (ip), vehicle: distilled water + Tween-80 96 % of control | endpoint: median survival time, dose: 25.0 mg/kg/injection, schedule: Q01DX005 (ip), vehicle: distilled water + Tween-80 96 % of control | endpoint: median survival time, dose: 50.0 mg/kg/injection, schedule: Q01DX005 (ip), vehicle: distilled water + Tween-80 103 % of control | endpoint: median survival time, dose: 100.0 mg/kg/injection, schedule: Q01DX005 (ip), vehicle: distilled water + Tween-80 102 % of control | endpoint: median survival time, dose: 200.0 mg/kg/injection, schedule: Q01DX005 (ip), vehicle: distilled water + Tween-80 101 % of control

O=C1CCCCC1CNCc1ccccc1 (stereo not given)
inactive: endpoint: mean survival time, dose: 75.0 mg/kg/injection, schedule: Q01DX001 (ip), vehicle: saline 102 % of control | endpoint: mean survival time, dose: 150.0 mg/kg/injection, schedule: Q01DX001 (ip), vehicle: saline 93 % of control

Nc1cc(OCC(=O)O)c(Cl)cc1Cl
inactive: [4] 96 % of control | [5] 89 % of control | endpoint: mean survival time, dose: 200.0 mg/kg/injection, schedule: Q01DX009 (ip), vehicle: Klucel (hydroxypropylcellulose) (HPC) 93 % of control

O=C(Nc1ccc([N+](=O)[O-])cc1)OCC#CC#CCOC(=O)Nc1ccc([N+](=O)[O-])cc1
inactive: endpoint: mean survival time, dose: 100.0 mg/kg/injection, schedule: Q04DX003 (ip), vehicle: Klucel (hydroxypropylcellulose) (HPC) 94 % of control | endpoint: mean survival time, dose: 200.0 mg/kg/injection, schedule: Q04DX003 (ip), vehicle: Klucel (hydroxypropylcellulose) (HPC) 94 % of control

CCOC(=O)c1ccc(Oc2ncc([N+](=O)[O-])s2)cc1
inactive: endpoint: mean survival time, dose: 4.95 mg/kg/injection, schedule: Q01DX009 (ip), vehicle: saline with Tween-80 100 % of control | endpoint: mean survival time, dose: 7.42 mg/kg/injection, schedule: Q01DX009 (ip), vehicle: saline with Tween-80 95 % of control
